Read-outs that look alike come from different tables or passages of the source.
Key:
[1] = tested on: 129 Sv/J autosomal Alport mice; assay type: in vivo
Procedure: Immunofluorescence microscopy. Fresh frozen kidneys were sectioned at 8-μm and acetone fixed. Sections were incubated overnight at 4° C. in primary antibody solution. The dual stain consisting of rat anti-mouse Laminin-α2 antibody (Sigma-Aldrich, St. Louis, Mo.) at 1:200 and rabbit anti-mouse phospho-FAK 397 antibody at 1:25 as well as the dual stain of goat anti-mouse Integrin α8 antibody (R & D Systems, Minneapolis, Minn.) at 1:1000 and rabbit anti-mouse Laminin-5 antibody, at 1:1000 were diluted in 0.3% PBST+5% FBS. Rabbit anti-mouse Fibronectin antibody at 1:300 and rat anti-mouse CD11b antibody at 1:100 were diluted in 7% Milk. Slides were rinsed with 1×PBS and incubated with the appropriate Alexa Fluor donkey secondary antibodies at 1:300 for 1 hour at room temperature. They were then rinsed again with 1×PBS and mounted with Vectashield Mounting Medium with DAPI (Vector, Burlingame, Calif.). The dual stain of mouse-anti rat Laminin α1 antibody at 1:300 and rabbit anti-mouse phospho-FAK 397 antibody at 1:25 were diluted in 0.3% PBST+5% NGS and incubated overnight at 4° C. Slides were rinsed with 1×PBS and incubated with the appropriate Alexa Fluor goat secondary antibodies at 1:300 for 1 hour at room temperature. They were then rinsed again with 1×PBS and mounted with Vectashield Mounting Medium with DAPI.
Real time qRT-PCR. Total RNA was reverse transcribed using […]® III (Invitrogen, Life Technologies, Grand Island, N.Y.) with Oligo(dT)20 Primer (Invitrogen). The real time PCR was carried out using TAQMAN® Gene Expression Master Mix (Applied Biosystems, Life Technologies, Grand Island, N.Y.), and quantified using STEPONEPLUS™ Real-Time PCR System (Applied Biosystems). Samples were normalized to Mouse GAPDH Endogenous Control VIC® Probe (Applied Biosystems catalogue #4352339E) which was run alongside MMP-9 (Catalog #4331182, ID# Mm00442991_m1), MMP-10 (Catalog #4331182, ID# Mm00444630_m1), MMP-12 (Catalog #4331182, ID# Mm00500554_m1), IL-6 (Catalog #4331182, ID# Mm00446190_m1), NFKbia (Catalog #4331182, ID# Mm00477798_m1), and FAK (Catalog #4331182, ID# Mm00433209_m1) TAQMAN® Gene Expression Assay Probes (Applied Biosystems). Samples were run in triplicate with a final reaction volume of 20 ul with the following cycling parameters: 50° C. for 2 min, 95° C. for 10 min, followed by 40 cycles of a two-step PCR consisting of 95° C. for 15 s and 60° C. for 1 min. Relative changes in gene expression were determined by calculating the fold change using the comparative CT method of 2^−ΔΔCT. Data are expressed as the mean with standard deviation for at least four independent RNA samples per data point.
Treatment of mice with TAE226. Four Col 4A3 knockout mice from 129 Sv/J background were given 50 mg/Kg TAE226 (ChemScene, LLC Monmouth Junction, N.J.) 1× daily by gavage needle starting at two weeks of age until seven weeks old. The TAE226 was diluted in a 0.5% carboxy methyl cellulose suspension. Three control Col 4a3 knockout mice of the same age were given 0.5% CMC suspension alone and served as controls.
Albumin and creatinine assays. Urine was collected weekly and albumin concentrations were analyzed as instructed using a mouse albumin ELISA kit #MSAKT from Molecular Innovations (Novi, Mich.). Albumin levels were normalized to creatinine using QuantiChrom Creatinine Assay Kit (DICT-500) (BioAssay Systems, Hayward, Calif.) as instructed.
Transmission electron microscopy. Transmission electron microscopy was performed as described previously (Cosgrove et al., 2000, Am J Pathol; 157: 1649-1659).

FAK = assay: pFAK397 western blot in primary mesangial cells with TAE226; assay type: cell-based, mouse; settings: 0.5 and 1.0 μM TAE226, five hours
Procedure: Primary Mesangial Cells were derived and characterized as previously described (Cosgrove et al., 2008, Am J Pathol; 172: 761-773). Three independent Transwell Migration Assays were performed using 0.5 μM TAE226 as previously described. For pFAK Western Blot^397, cells were maintained on 1% FCS-containing media for two days, overnight in 0.1% BSA (Fraction V, Roche Diagnostics, Mannheim, Germany) and TAE226 added to 0.5 and 1.0 μM. After five hours protein was collected in M-PER™ (Thermo Scientific, Rockford, Ill.) containing Protease Inhibitor Cocktail P8340 at 1:100 (Sigma, St. Louis, Mo.), 5 mM Sodium Fluoride (Sigma), and 2 mM Sodium Orthovanadate (Sigma) and Western Blots run as described below.
Immunoblotting. Ten to fifteen micrograms, of cellular protein, was resolved in a 10% SDS-PAGE and then electrotransfered to PVDF membrane. The membranes were cut in half and the upper half (250 kDa to 75 kDa) used for pFAK/tFAK immunoblotting while the bottom half used for β-actin immunoblotting (loading control). Conditions for pFAK detection: the membrane was blocked in milk blocking solution (5% milk containing 0.2% Tween-20 in PBS) for 1 hour at room temperature with constant shaking and incubated overnight at 4° C. with anti-pFAK 1:1,000 in BSA blocking solution (1% BSA containing 0.2% Tween-20 in PBS). […]

[2] = 50 mg/Kg daily, 2 to 7 weeks, relative to vehicle
[3] = at 6 weeks of age, relative to vehicle
[4] = by 7 weeks of age, relative to vehicle

For `CNC(=O)c1ccccc1Nc1nc(Nc2ccc(N3CCOCC3)cc2OC)ncc1Cl` [TAE226], the “pFAK immunostaining in podocytes in vivo” value ([1]; 50 mg/Kg 1× daily by gavage, two to seven weeks of age) was “abolished”, the “Glomerular mRNA expression level of MMP-9” value [1, 2] was “significantly reduced” and the “Glomerular mRNA expression level of MMP-10” value [1, 2] was “significantly reduced”. For the same molecule, the “Glomerular mRNA expression level of MMP-12” value [1, 2] was “significantly reduced”, the “Monocytic infiltration (CD11b immunostaining)” value ([1]; 7 weeks of age) was “remarkably robust reduction” and the “Renal scarring (fibronectin immunostaining)” value ([1]; 7 weeks of age) was “remarkably robust reduction”. For the same molecule, the “GBM architecture (transmission electron microscopy)” value ([1]; 7 weeks of age, relative to vehicle) was “markedly improved”, the Glomerulosclerosis ([1]; Alport mice) was “ameliorated” and the “Blood urea nitrogen levels” value [1, 3] was “significant reduction”. For the same molecule, the Proteinuria [1, 3] was “significant reduction”, the “Blood urea nitrogen levels” value [1, 4] was “loose significance” and the Proteinuria [1, 4] was “loose significance”. The “Mesangial process invasion of glomerular capillary loops” value ([1]; integrin α8 / laminin α5 immunostaining, vs vehicle) was “amelioration” and the “pFAK activation in mesangial cells” value (FAK) was “blocked pFAK activation in a dose-dependent manner”.

From patent US9719981B2, “RAC1 inhibitors for the treatment of alport glomerular disease” (Father Flanagan's Boys' Home, priority 2012, dated 2017)
